# Reference: PMC12337661, “PIEZO1 mechanical insensitivity in generalized lymphatic dysplasia with the potential for pharmacological rescue” (iScience, 2025)
# Tests used:
# E829V hPIEZO1 = biological target: T1, E829V hPIEZO1 (Homo sapiens, UniProt Q92508, E829V); test: Intracellular Ca2+ measurement (fura-2), T-REx-293 cells transiently transfected; assay type: cell-based; conditions: 1 μM Y1, versus WT
# T1 construct: expressed in transfected cells; host or cells: T-REx-293 (modified HEK293), transient
# Experimental: (§1) HEK 293 cell line was transiently transfected at 90% confluence using Lipofectamine 2000 (Invitrogen) in OptiMEM (Gibco). Briefly: 500 ng endotoxin-free DNA per 100μL OptiMEM was prepared alongside 3μL Lipofectamine 2000 per 100μL OptiMEM (Gibco). Both were incubated for 5 min and then mixed, and then incubated at room temperature (21°C–24°C) for 20–30 min. Finally, the transfection mix was gently added dropwise to the cells and the cells were placed in a humidified incubator at 37°C supplied with 5% CO2 for 5 h. Medium was replaced afterward, and cells were used for experimentation 48 h after transfection.
# (§2) For intracellular Ca^2+ assays, cells were plated at 80–90% confluence in 96-well plates 24 h prior to recordings (6–8 × 10^4 cells per well). […] Cells were washed with SBS and incubated at room temperature for 20 min prior to recordings. Equal volumes of 2x concentrated compounds were injected to test for acute channel activation. Pre-incubation with compounds occurred during the 20 min prior to recordings. To expose cell membranes to hypo-osmolality, an equal volume of hypotonic SBS (containing only 35 mM NaCl) was injected onto the cells. Measurements were made on a fluorescence plate reader (Flexstation III, Molecular Devices) at room temperature (21 ± 2°C). Fura-2 was excited at 340 nm and 380 nm and emitted light collected at 510 nm, with measurements shown as the change in fluorescence (F) ratio (ΔF340/380).
# (§3) KC41 (Dooku1) was prepared as described.[28] All purchased chemicals and solvents were used without further purification unless otherwise stated. All compounds were at least 95% pure by 1H NMR. 1H Nuclear Magnetic Resonance spectra were recorded at 500 MHz using a Bruker DRX 500 instrument or at 400 MHz using a Bruker DPX 400. 1H spectra are referenced based on the residual proton in the solvent (e.g., the CHCl3, 0.01% in 99.99% CDCl3). Coupling constants (J) are reported to the nearest 0.1 Hz. 13C NMR spectra were recorded at 125 MHz on 500 MHz spectrometers or at 100 MHz on 400 MHz spectrometers. LC-MS was performed on a Bruker Daltronics running a gradient of increasing acetonitrile (5–95%) in H2O both containing 0.1% formic acid at 1 mL.min^−1, on a short path C18 reverse phase column, detecting compounds with both a diode array detector and a Bruker mass spectrum analyser. HRMS was performed on a Bruker Daltonics micrOTOF using positive electrospray ionisation (ES+). Automated column chromatograph was carried out using a Biotage Isolera Four, using either Sfär Silica D or KP-Silica cartridges. HPLC was performed on an Agilent 1290 Infinity Series equipped with a UV detector and Hyperprep C18 reverse phase column. Key to NMR abbreviations: s (singlet), br s (broad singlet) d (doublet), dd (doublet of doublets), ddd (doublet of doublets of doublets), t (triplet), dt (doublet of triples), q (quartet), m (multiplet), ap. t (apparent triplet). For experiments, Yoda1 and its analogues were prepared as 10 mM stock solutions in 100% dimethyl sulfoxide (DMSO) before serial dilution in DMSO and final dilution in aqueous solution. Cells were exposed to 0.1% DMSO for all concentrations of the compounds from 0 to 10 μM.
# I2270T hPIEZO1 = biological target: T2, I2270T hPIEZO1 (Homo sapiens, UniProt Q92508, I2270T); test: as above; assay type: cell-based
# T2 construct: expressed in transfected cells; host or cells: T-REx-293 (modified HEK293), transient
# Experimental: as §1, §2, §3
# WT hPIEZO1 = biological target: T3, WT hPIEZO1 (Homo sapiens, UniProt Q92508); test: as above; assay type: cell-based; conditions: 1 μM
# T3 construct: expressed in transfected cells; host or cells: T-REx-293 (modified HEK293), transient
# Experimental: as §1, §2, §3
# R2335Q hPIEZO1 = biological target: T4, R2335Q hPIEZO1 (Homo sapiens, UniProt Q92508, R2335Q); test: as above; assay type: cell-based; conditions: 1 μM Y1, versus WT
# T4 construct: expressed in transfected cells; host or cells: T-REx-293 (modified HEK293), transient
# Experimental: as §1, §2, §3
# mice = conditions: cited from earlier work
# T3 sequence (Q92508 whole entry): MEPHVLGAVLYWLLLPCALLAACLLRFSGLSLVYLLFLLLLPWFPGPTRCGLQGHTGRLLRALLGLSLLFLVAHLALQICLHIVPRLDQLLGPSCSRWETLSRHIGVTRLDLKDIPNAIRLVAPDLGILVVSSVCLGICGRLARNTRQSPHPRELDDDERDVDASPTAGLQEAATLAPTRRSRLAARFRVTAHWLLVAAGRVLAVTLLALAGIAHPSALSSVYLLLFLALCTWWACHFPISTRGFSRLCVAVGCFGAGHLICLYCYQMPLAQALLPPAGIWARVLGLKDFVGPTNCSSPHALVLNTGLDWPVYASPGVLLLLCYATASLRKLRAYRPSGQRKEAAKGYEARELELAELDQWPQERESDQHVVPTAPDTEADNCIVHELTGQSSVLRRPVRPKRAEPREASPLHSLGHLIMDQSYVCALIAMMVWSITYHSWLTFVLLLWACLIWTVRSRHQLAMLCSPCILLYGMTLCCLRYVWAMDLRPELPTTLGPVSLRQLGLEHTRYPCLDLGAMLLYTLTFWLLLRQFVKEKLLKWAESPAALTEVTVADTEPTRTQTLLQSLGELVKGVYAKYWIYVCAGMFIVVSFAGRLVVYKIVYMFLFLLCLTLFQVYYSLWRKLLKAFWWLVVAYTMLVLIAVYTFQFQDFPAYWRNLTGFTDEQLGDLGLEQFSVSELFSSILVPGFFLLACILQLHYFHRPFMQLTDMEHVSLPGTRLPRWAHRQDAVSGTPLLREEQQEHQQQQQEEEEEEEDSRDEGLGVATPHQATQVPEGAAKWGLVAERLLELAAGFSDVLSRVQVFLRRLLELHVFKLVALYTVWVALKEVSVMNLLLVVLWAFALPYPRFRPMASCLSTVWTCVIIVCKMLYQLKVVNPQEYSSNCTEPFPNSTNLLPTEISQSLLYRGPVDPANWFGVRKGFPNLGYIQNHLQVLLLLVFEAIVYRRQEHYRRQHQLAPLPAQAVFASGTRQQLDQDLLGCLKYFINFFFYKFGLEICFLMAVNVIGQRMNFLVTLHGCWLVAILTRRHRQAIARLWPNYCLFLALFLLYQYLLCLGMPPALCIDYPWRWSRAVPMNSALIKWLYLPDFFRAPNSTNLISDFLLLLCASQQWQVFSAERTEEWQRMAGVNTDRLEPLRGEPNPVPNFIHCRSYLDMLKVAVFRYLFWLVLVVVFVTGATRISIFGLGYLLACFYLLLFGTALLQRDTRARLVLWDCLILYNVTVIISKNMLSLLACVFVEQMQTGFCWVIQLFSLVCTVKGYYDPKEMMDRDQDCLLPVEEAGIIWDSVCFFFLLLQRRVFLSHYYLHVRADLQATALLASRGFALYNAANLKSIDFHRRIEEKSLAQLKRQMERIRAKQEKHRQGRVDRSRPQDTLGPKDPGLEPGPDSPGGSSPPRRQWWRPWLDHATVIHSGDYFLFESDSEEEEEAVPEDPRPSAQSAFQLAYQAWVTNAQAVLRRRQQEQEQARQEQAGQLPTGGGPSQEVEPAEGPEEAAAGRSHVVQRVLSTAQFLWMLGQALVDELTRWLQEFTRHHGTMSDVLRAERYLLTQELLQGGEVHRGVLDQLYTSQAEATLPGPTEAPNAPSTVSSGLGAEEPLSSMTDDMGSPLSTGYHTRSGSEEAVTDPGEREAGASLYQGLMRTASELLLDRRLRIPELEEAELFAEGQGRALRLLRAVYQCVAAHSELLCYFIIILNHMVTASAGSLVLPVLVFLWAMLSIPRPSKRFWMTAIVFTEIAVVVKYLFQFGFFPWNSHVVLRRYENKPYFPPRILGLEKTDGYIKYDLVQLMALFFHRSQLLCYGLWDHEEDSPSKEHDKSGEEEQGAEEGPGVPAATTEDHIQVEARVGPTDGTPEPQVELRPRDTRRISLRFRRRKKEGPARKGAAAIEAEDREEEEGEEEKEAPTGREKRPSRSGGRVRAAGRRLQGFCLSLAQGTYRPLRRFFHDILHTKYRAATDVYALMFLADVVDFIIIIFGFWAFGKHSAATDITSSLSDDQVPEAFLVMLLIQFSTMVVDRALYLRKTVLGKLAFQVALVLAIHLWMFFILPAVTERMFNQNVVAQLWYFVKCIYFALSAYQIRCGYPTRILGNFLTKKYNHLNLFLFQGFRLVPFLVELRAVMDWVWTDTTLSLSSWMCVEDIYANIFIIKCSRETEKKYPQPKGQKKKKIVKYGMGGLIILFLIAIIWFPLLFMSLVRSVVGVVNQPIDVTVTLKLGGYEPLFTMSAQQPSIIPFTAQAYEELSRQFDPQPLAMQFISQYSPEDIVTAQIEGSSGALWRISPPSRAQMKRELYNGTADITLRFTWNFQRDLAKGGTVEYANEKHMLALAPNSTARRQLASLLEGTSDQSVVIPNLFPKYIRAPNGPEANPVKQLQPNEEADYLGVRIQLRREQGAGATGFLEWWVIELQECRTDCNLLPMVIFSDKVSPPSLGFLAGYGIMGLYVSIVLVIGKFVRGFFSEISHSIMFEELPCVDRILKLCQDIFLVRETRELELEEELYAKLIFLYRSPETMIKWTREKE
# T2 sequence (Q92508 whole entry I2270T): as the sequence (Q92508 whole entry) above, with I2270T counted along it
# T1 sequence (Q92508 whole entry E829V): as the sequence (Q92508 whole entry) above, with E829V counted along it
# T4 sequence (Q92508 whole entry R2335Q): as the sequence (Q92508 whole entry) above, with R2335Q counted along it
compound,measurement,setting,value
Clc1cccc(Cl)c1CSc1nnc(-c2cnccn2)s1 [Yoda1],Effect on hPIEZO1 channel function,E829V hPIEZO1,reduced 1 μM Y1 effect
same,Effect on hPIEZO1 channel function,"I2270T hPIEZO1; 1 μM Y1, versus WT",loss of MA: LOF; reduced 1 μM Y1 effect
same,"Ca2+ signal 30-60 s after application, normalized to WT, vector control subtracted, Mean","I2270T hPIEZO1; 1 μM, n = 4",0.1013
same,fluorescence (ΔFratio),"I2270T hPIEZO1; 1 μM, time 0 s",6.26E-04
same,fluorescence (ΔFratio),"I2270T hPIEZO1; 1 μM, time 5 s",-0.00991
same,fluorescence (ΔFratio),"I2270T hPIEZO1; 1 μM, time 10 s",-0.00857
same,fluorescence (ΔFratio),"I2270T hPIEZO1; 1 μM, time 15 s",0.00155
same,fluorescence (ΔFratio),"I2270T hPIEZO1; 1 μM, time 20 s",0.00344
same,fluorescence (ΔFratio),"I2270T hPIEZO1; 1 μM, time 25 s",0.01286
same,fluorescence (ΔFratio),"I2270T hPIEZO1; 1 μM, time 30 s",-0.01023
same,fluorescence (ΔFratio),"I2270T hPIEZO1; 1 μM, time 35 s",-0.00138
same,fluorescence (ΔFratio),"I2270T hPIEZO1; 1 μM, time 40 s",0.07241
same,fluorescence (ΔFratio),"I2270T hPIEZO1; 1 μM, time 45 s",0.05056
same,fluorescence (ΔFratio),"I2270T hPIEZO1; 1 μM, time 50 s",0.06632
same,fluorescence (ΔFratio),"I2270T hPIEZO1; 1 μM, time 55 s",0.05818
same,fluorescence (ΔFratio),"I2270T hPIEZO1; 1 μM, time 60 s",0.06863
same,fluorescence (ΔFratio),"I2270T hPIEZO1; 1 μM, time 65 s",0.05602
same,fluorescence (ΔFratio),"I2270T hPIEZO1; 1 μM, time 70 s",0.06799
same,fluorescence (ΔFratio),"I2270T hPIEZO1; 1 μM, time 75 s",0.05186
same,fluorescence (ΔFratio),"I2270T hPIEZO1; 1 μM, time 80 s",0.04949
same,fluorescence (ΔFratio),"I2270T hPIEZO1; 1 μM, time 85 s",0.05597
same,fluorescence (ΔFratio),"I2270T hPIEZO1; 1 μM, time 90 s",0.06467
same,fluorescence (ΔFratio),"I2270T hPIEZO1; 1 μM, time 95 s",0.02814
same,fluorescence (ΔFratio),"I2270T hPIEZO1; 1 μM, time 100 s",0.04731
same,fluorescence (ΔFratio),"I2270T hPIEZO1; 1 μM, time 105 s",0.04051
same,fluorescence (ΔFratio),"I2270T hPIEZO1; 1 μM, time 110 s",0.04381
same,fluorescence (ΔFratio),"I2270T hPIEZO1; 1 μM, time 115 s",0.05647
same,fluorescence (ΔFratio),"I2270T hPIEZO1; 1 μM, time 120 s",0.06513
same,fluorescence (ΔFratio),"I2270T hPIEZO1; 1 μM, time 125 s",0.04171
same,fluorescence (ΔFratio),WT hPIEZO1; time 0 s,-0.01302
same,fluorescence (ΔFratio),WT hPIEZO1; time 5 s,-0.00371
same,fluorescence (ΔFratio),WT hPIEZO1; time 10 s,0.00261
same,fluorescence (ΔFratio),WT hPIEZO1; time 15 s,0.01821
same,fluorescence (ΔFratio),WT hPIEZO1; time 20 s,-9.97E-05
same,fluorescence (ΔFratio),WT hPIEZO1; time 25 s,-0.004
same,fluorescence (ΔFratio),WT hPIEZO1; time 30 s,-0.05053
same,fluorescence (ΔFratio),WT hPIEZO1; time 35 s,0.02247
same,fluorescence (ΔFratio),WT hPIEZO1; time 40 s,0.1718
same,fluorescence (ΔFratio),WT hPIEZO1; time 45 s,0.1972
same,fluorescence (ΔFratio),WT hPIEZO1; time 50 s,0.2136
same,fluorescence (ΔFratio),WT hPIEZO1; time 55 s,0.2004
same,fluorescence (ΔFratio),WT hPIEZO1; time 60 s,0.1986
same,fluorescence (ΔFratio),WT hPIEZO1; time 65 s,0.1996
same,fluorescence (ΔFratio),WT hPIEZO1; time 70 s,0.1871
same,fluorescence (ΔFratio),WT hPIEZO1; time 75 s,0.1803
same,fluorescence (ΔFratio),WT hPIEZO1; time 80 s,0.1839
same,fluorescence (ΔFratio),WT hPIEZO1; time 85 s,0.1791
same,fluorescence (ΔFratio),WT hPIEZO1; time 90 s,0.1817
same,fluorescence (ΔFratio),WT hPIEZO1; time 95 s,0.1659
same,fluorescence (ΔFratio),WT hPIEZO1; time 100 s,0.1565
same,fluorescence (ΔFratio),WT hPIEZO1; time 105 s,0.1608
same,fluorescence (ΔFratio),WT hPIEZO1; time 110 s,0.1552
same,fluorescence (ΔFratio),WT hPIEZO1; time 115 s,0.1355
same,fluorescence (ΔFratio),WT hPIEZO1; time 120 s,0.1385
same,fluorescence (ΔFratio),WT hPIEZO1; time 125 s,0.172
same,Effect on hPIEZO1 channel function,R2335Q hPIEZO1,reduced 1 μM Y1 effect
same,lymphatic valve formation,mice; WT mice,accelerated lymphatic valve formation
same,adverse effects of injection,mice; mice injected,mostly not been adversely affected
same,effect on edemas,mice; mice,reduce peripheral and central edemas
same,meningeal lymphatic network function,mice; mice,restored meningeal lymphatic network function
same,postsurgical lymphedema,mice; mice,suppressed postsurgical lymphedema
same,cerebrospinal fluid accumulation and ventricular enlargement,mice; mouse models of Down syndrome,decreased pathological cerebrospinal fluid accumulation and ventricular enlargement
